{"source": "paper PMC7914897", "about": "“Cytotoxic Potential of a-Azepano- and 3-Amino-3,4-SeCo-Triterpenoids” (International Journal of Molecular Sciences, 2021)", "key": {"UACC-257 (Melanoma)": {"test_system": "UACC-257 (Melanoma)", "experiment": "NCI-60 screen (SRB, 48 h)", "conditions": "Homo sapiens"}, "HL-60(TB) (Leukemia)": {"test_system": "HL-60(TB) (Leukemia)", "experiment": "NCI-60 screen (SRB, 48 h)", "format": "cell-based", "conditions": "Homo sapiens"}, "T-47D (Breast cancer)": {"test_system": "T-47D (Breast cancer)", "experiment": "NCI-60 screen (SRB, 48 h)", "conditions": "Homo sapiens, T47D"}, "LOX IMVI (Melanoma)": {"test_system": "LOX IMVI (Melanoma)", "experiment": "NCI-60 screen (SRB, 48 h)", "format": "cell-based", "conditions": "Homo sapiens"}, "SR (Leukemia)": {"test_system": "SR (Leukemia)", "experiment": "NCI-60 screen (SRB, 48 h)", "format": "cell-based", "conditions": "Homo sapiens"}, "K-562 (Leukemia)": {"test_system": "K-562 (Leukemia)", "experiment": "NCI-60 screen (SRB, 48 h)", "conditions": "Homo sapiens"}, "BT-549 (Breast cancer)": {"test_system": "BT-549 (Breast cancer)", "experiment": "NCI-60 screen (SRB, 48 h)", "format": "cell-based", "conditions": "Homo sapiens"}, "SF-295 (CNS cancer)": {"test_system": "SF-295 (CNS cancer)", "experiment": "NCI-60 screen (SRB, 48 h)", "conditions": "Homo sapiens"}, "[1]": {"test_system": "NCI-H522 (NSC lung cancer)", "experiment": "NCI-60 screen (SRB, 48 h)", "conditions": "Homo sapiens"}, "DU-145 (Prostate cancer)": {"test_system": "DU-145 (Prostate cancer)", "experiment": "NCI-60 screen (SRB, 48 h)", "conditions": "Homo sapiens"}, "RXF 393 (Renal cancer)": {"test_system": "RXF 393 (Renal cancer)", "experiment": "NCI-60 screen (SRB, 48 h)", "conditions": "Homo sapiens"}, "IGROV1 (Ovarian cancer)": {"test_system": "IGROV1 (Ovarian cancer)", "experiment": "NCI-60 screen (SRB, 48 h)", "conditions": "Homo sapiens"}, "OVCAR-4 (Ovarian cancer)": {"test_system": "OVCAR-4 (Ovarian cancer)", "experiment": "NCI-60 screen (SRB, 48 h)", "format": "cell-based", "conditions": "Homo sapiens"}, "HCT-15 (Colon cancer)": {"test_system": "HCT-15 (Colon cancer)", "experiment": "NCI-60 screen (SRB, 48 h)", "conditions": "Homo sapiens"}, "UO-31 (Renal cancer)": {"test_system": "UO-31 (Renal cancer)", "experiment": "NCI-60 screen (SRB, 48 h)", "conditions": "Homo sapiens"}, "A498 (Renal cancer)": {"test_system": "A498 (Renal cancer)", "experiment": "NCI-60 screen (SRB, 48 h)", "conditions": "Homo sapiens"}, "KM12 (Colon cancer)": {"test_system": "KM12 (Colon cancer)", "experiment": "NCI-60 screen (SRB, 48 h)", "conditions": "Homo sapiens"}, "Colon Cancer subpanel": {"test_system": "Colon Cancer subpanel", "experiment": "NCI-60 screen, subpanel", "conditions": "Homo sapiens"}, "[2]": {"test_system": "NCI/ADR-RES (Ovarian cancer)", "experiment": "NCI-60 screen (SRB, 48 h)", "conditions": "Homo sapiens"}, "HT29 (Colon cancer)": {"test_system": "HT29 (Colon cancer)", "experiment": "NCI-60 screen (SRB, 48 h)", "conditions": "Homo sapiens"}, "HCT-116 (Colon cancer)": {"test_system": "HCT-116 (Colon cancer)", "experiment": "NCI-60 screen (SRB, 48 h)", "conditions": "Homo sapiens"}, "HOP-92 (NSC lung cancer)": {"test_system": "HOP-92 (NSC lung cancer)", "experiment": "NCI-60 screen (SRB, 48 h)", "conditions": "Homo sapiens"}, "NSC lung cancer subpanel": {"test_system": "NSC lung cancer subpanel", "experiment": "NCI-60 screen, subpanel", "conditions": "Homo sapiens"}}, "data": [{"smiles": "Cc1ccc(S(=O)(=O)OC[C@@]2(C)CC[C@]3(C)CC[C@]4(C)C(=C3C2)C=C[C@@H]2[C@@]3(C)CCCNC(C)(C)[C@@H]3CC[C@]24C)cc1", "note": "[Compound 16]", "values": [{"measurement": "GI50", "setting": "UACC-257 (Melanoma); UACC-257", "value": 1850, "unit": "nM"}, {"measurement": "IC (TGI)", "setting": "UACC-257 (Melanoma); UACC-257, 48 h, read-out: TGI", "value": 3.68, "unit": "µM"}, {"measurement": "GI50", "setting": "HL-60(TB) (Leukemia)", "value": 1980, "unit": "nM"}, {"measurement": "IC (TGI)", "setting": "HL-60(TB) (Leukemia); 48 h", "value": 4.02, "unit": "µM"}, {"measurement": "GI50", "setting": "T-47D (Breast cancer)", "value": 1550, "unit": "nM"}, {"measurement": "IC (TGI)", "setting": "T-47D (Breast cancer); 48 h, read-out: TGI", "value": 3.26, "unit": "µM"}, {"measurement": "CC50", "setting": "T-47D (Breast cancer); read-out: LC50", "value": 6.85, "unit": "µM"}, {"measurement": "IC (TGI)", "setting": "LOX IMVI (Melanoma); 48 h", "value": 3.02, "unit": "µM"}, {"measurement": "activity at 10 µM", "setting": "LOX IMVI (Melanoma); 48 h, 1 dose 10 µM, read-out: Growth % of the Most Sensitive Cell Lines", "value": -99.2, "unit": "%"}, {"measurement": "GI50", "setting": "LOX IMVI (Melanoma); read-out: GI50", "value": 1630, "unit": "nM"}, {"measurement": "GI50", "setting": "SR (Leukemia)", "value": 310, "unit": "nM"}, {"measurement": "CC50", "setting": "SR (Leukemia); read-out: LC50 (the source's name)", "value": "> 100", "unit": "µM"}, {"measurement": "GI50", "setting": "K-562 (Leukemia); K562", "value": 1280, "unit": "nM"}, {"measurement": "CC50", "setting": "K-562 (Leukemia); K562, read-out: LC50", "value": "> 100", "unit": "µM"}, {"measurement": "GI50", "setting": "BT-549 (Breast cancer); BT-549", "value": 1480, "unit": "nM"}, {"measurement": "IC (TGI)", "setting": "BT-549 (Breast cancer); BT-549, 48 h", "value": 3.14, "unit": "µM"}, {"measurement": "GI50", "setting": "SF-295 (CNS cancer); SF-295", "value": 1780, "unit": "nM"}, {"measurement": "IC (TGI)", "setting": "SF-295 (CNS cancer); SF-295, 48 h, read-out: TGI", "value": 3.29, "unit": "µM"}, {"measurement": "CC50", "setting": "SF-295 (CNS cancer); SF-295, read-out: LC50", "value": 6.08, "unit": "µM"}, {"measurement": "GI50", "setting": "[1]; NCI-H522", "value": 1700, "unit": "nM"}, {"measurement": "IC (TGI)", "setting": "[1]; NCI-H522, 48 h, read-out: TGI", "value": 3.36, "unit": "µM"}, {"measurement": "CC50", "setting": "[1]; NCI-H522, read-out: LC50", "value": 6.64, "unit": "µM"}, {"measurement": "GI50", "setting": "DU-145 (Prostate cancer); DU-145", "value": 1810, "unit": "nM"}, {"measurement": "IC (TGI)", "setting": "DU-145 (Prostate cancer); DU-145, 48 h, read-out: TGI", "value": 3.4, "unit": "µM"}, {"measurement": "CC50", "setting": "DU-145 (Prostate cancer); DU-145, read-out: LC50", "value": 6.39, "unit": "µM"}, {"measurement": "GI50", "setting": "RXF 393 (Renal cancer); RXF 393", "value": 1350, "unit": "nM"}, {"measurement": "IC (TGI)", "setting": "RXF 393 (Renal cancer); RXF 393, 48 h, read-out: TGI", "value": 2.86, "unit": "µM"}, {"measurement": "CC50", "setting": "RXF 393 (Renal cancer); RXF 393, read-out: LC50", "value": 6.05, "unit": "µM"}, {"measurement": "GI50", "setting": "IGROV1 (Ovarian cancer); IGROV-1", "value": 1790, "unit": "nM"}, {"measurement": "IC (TGI)", "setting": "IGROV1 (Ovarian cancer); IGROV-1, 48 h, read-out: TGI", "value": 3.43, "unit": "µM"}, {"measurement": "IC (TGI)", "setting": "OVCAR-4 (Ovarian cancer); OVCAR-4, 48 h", "value": 3.16, "unit": "µM"}, {"measurement": "GI50", "setting": "OVCAR-4 (Ovarian cancer); OVCAR-4, read-out: GI50", "value": 1660, "unit": "nM"}, {"measurement": "CC50", "setting": "OVCAR-4 (Ovarian cancer); OVCAR-4, read-out: LC50 (the source's name)", "value": 6.02, "unit": "µM"}, {"measurement": "GI50", "setting": "HCT-15 (Colon cancer); HCT-15", "value": 1610, "unit": "nM"}, {"measurement": "IC (TGI)", "setting": "HCT-15 (Colon cancer); HCT-15, 48 h, read-out: TGI", "value": 3.17, "unit": "µM"}, {"measurement": "GI50", "setting": "UO-31 (Renal cancer); UO-31", "value": 1460, "unit": "nM"}, {"measurement": "IC (TGI)", "setting": "UO-31 (Renal cancer); UO-31, 48 h, read-out: TGI", "value": 2.85, "unit": "µM"}, {"measurement": "CC50", "setting": "UO-31 (Renal cancer); UO-31, read-out: LC50", "value": 5.59, "unit": "µM"}, {"measurement": "GI50", "setting": "A498 (Renal cancer); A498", "value": 1710, "unit": "nM"}, {"measurement": "IC (TGI)", "setting": "A498 (Renal cancer); A498, 48 h, read-out: TGI", "value": 3.13, "unit": "µM"}, {"measurement": "CC50", "setting": "A498 (Renal cancer); A498, read-out: LC50", "value": 5.74, "unit": "µM"}, {"measurement": "GI50", "setting": "KM12 (Colon cancer); KM12", "value": 1860, "unit": "nM"}, {"measurement": "IC (TGI)", "setting": "KM12 (Colon cancer); KM12, 48 h, read-out: TGI", "value": 3.57, "unit": "µM"}, {"measurement": "CC50", "setting": "KM12 (Colon cancer); KM12, read-out: LC50", "value": 6.85, "unit": "µM"}, {"measurement": "IC (TGI)", "setting": "Colon Cancer subpanel; 48 h, read-out: TGI MG_MID", "value": 3.3, "unit": "µM"}, {"measurement": "GI50", "setting": "Colon Cancer subpanel; read-out: GI50 MG_MID", "value": 1640, "unit": "nM"}, {"measurement": "CC50", "setting": "Colon Cancer subpanel; read-out: LC50 MG_MID", "value": 6.94, "unit": "µM"}, {"measurement": "GI50", "setting": "[2]", "value": 2050, "unit": "nM"}, {"measurement": "IC (TGI)", "setting": "[2]; 48 h, read-out: TGI", "value": 4.59, "unit": "µM"}, {"measurement": "CC50", "setting": "[2]; read-out: LC50", "value": "> 100", "unit": "µM"}, {"measurement": "GI50", "setting": "HT29 (Colon cancer); HT-29", "value": 1480, "unit": "nM"}, {"measurement": "IC (TGI)", "setting": "HT29 (Colon cancer); HT-29, 48 h, read-out: TGI", "value": 3.08, "unit": "µM"}, {"measurement": "GI50", "setting": "HCT-116 (Colon cancer); HCT-116", "value": 1540, "unit": "nM"}, {"measurement": "activity at 10 µM", "setting": "HCT-116 (Colon cancer); HCT-116, 48 h, read-out: Growth % of the Most Sensitive Cell Lines", "value": -91.5, "unit": "%"}, {"measurement": "GI50", "setting": "HOP-92 (NSC lung cancer); HOP-92", "value": 1450, "unit": "nM"}, {"measurement": "IC (TGI)", "setting": "HOP-92 (NSC lung cancer); HOP-92, 48 h, read-out: TGI", "value": 2.97, "unit": "µM"}, {"measurement": "CC50", "setting": "HOP-92 (NSC lung cancer); HOP-92, read-out: LC50", "value": 6.11, "unit": "µM"}, {"measurement": "IC (TGI)", "setting": "NSC lung cancer subpanel; 48 h, read-out: TGI MG_MID", "value": 3.36, "unit": "µM"}, {"measurement": "GI50", "setting": "NSC lung cancer subpanel; read-out: GI50 MG_MID", "value": 1720, "unit": "nM"}, {"measurement": "CC50", "setting": "NSC lung cancer subpanel; read-out: LC50 MG_MID", "value": 6.23, "unit": "µM"}]}]}
